Data reported in patent US20120141478A1, “COMPOSITIONS AND METHODS FOR DELIVERING ANTI-ACTIVATED RAS ANTIBODIES” (Cellectis S.A., priority 2006, published 2012).

What was measured:
[1] = target: mutated Ki-RAS of HCT 116 cells (human) (UniProt P01116); assay: cell-based or functional assay
K-RASmt HCT 116 cells = assay: In vitro anti-proliferative activity (WST-1) on HCT 116; format: cell-based, human
Experimental: Cells were incubated for 120 hours with the antibody alone (Y13259; 700 nM), or the DPV3-Y13259 conjugate (700 nM), with DPV3-maleimide as internal controls (DPV3-mal; 700 nM). Non-relevant IgG1 anti-peroxydase immunoglobulins (IgG PO; 700 nM) and an inhibitor of RAS farnesyltransferase (FTI-276; 100 nM) were used as internal controls. Results are expressed as mean±SEM of three independent experiments performed in duplicate. *p<0.05 vs not treated cells.
HCT 116 and HT-29 were seeded at 8×10^3 cells/well (96-well plates) in medium+0.5% and 10% FCS (Foetal Calf Serum) respectively. The day after, cells were treated with increasing concentrations of tested compounds in complete medium (+10% FCS) and cells were counted overtime at 24 h, 48 h, 72 h and 120 h using the WST-1 method, described hereafter. The medium was removed and 100 μl of fresh medium without FCS supplemented with 10% WST-1 solution was added on cells for 2 h at 37° C., 5% CO2. Measurement of A450 nm−A690 nm (blank=0 cells) was performed to determine cell number.
CPP-Y13259 conjugates were tested in a cell proliferation assay on mutated RAS-expressing and wild-type RAS expressing cell lines (HCT 116 and HT-29, respectively). FTI-276, a farnesyltransferase inhibitor that inhibits RAS-mediated cell proliferation constituted a positive control. […]

[2] = test system: human lung carcinoma expressing K-RAS; details: cited from earlier work

Molecule	efficient concentration, HCT 116 cell proliferation (WST-1) [1]	duration of the effect on HCT 116 cell proliferation (K-RASmt HCT 116 cells; 120 hours = maximum time tested)	effect on HCT 116 cell proliferation (K-RASmt HCT 116 cells; FTI-276 100 nM, positive control)	effect on tumor growth in nude mice [2]
DPV3-Y13259 conjugate (antibody)	85 to 700 nM			
CSCC[C@H](NC(=O)c1ccc(NC[C@@H](N)CS)cc1-c1ccccc1)C(=O)O [FTI-276]		at least 120 hours	inhibited HCT 116 cell proliferation	block the growth of a human lung carcinoma expressing K-RAS in nude mice
